In US12655175B2, “C17, C20, and C21 substituted neuroactive steroids and their methods of use” (Sage Therapeutics, LLC, priority 2016, dated 2026):

Molecular target: GABAA receptor
Assay: Steroid inhibition of [35S]-TBPS binding
Conditions: rat brain cortical membranes, 3 nM [35S]-TBPS, in the presence of 5 mM GABA
Method: Steroid Inhibition of TBPS Binding
Briefly, cortices are rapidly removed following decapitation of carbon dioxide-anesthetized Sprague-Dawley rats ([…]). The cortices are homogenized in 10 volumes of ice-cold 0.32 M sucrose using a glass/teflon homogenizer and centrifuged at 1500×g for 10 min at 4° C. The resultant supernatants are centrifuged at 10,000×g for 20 min at 4° C. to obtain the P2 pellets. The P2 pellets are resuspended in 200 mM NaCl/50 mM Na—K phosphate pH 7.4 buffer and centrifuged at 10,000×g for 10 min at 4° C. This washing procedure is repeated twice and the pellets are resuspended in 10 volumes of buffer. Aliquots ([…]) of the membrane suspensions are incubated with 3 nM [^35S]-TBPS and […] aliquots of test drug dissolved in dimethyl sulfoxide (DMSO) (final 0.5%) in the presence of 5 mM GABA. The incubation is brought to a final volume of 1.0 mL with buffer. […] Following a 90 min incubation at room temp, the assays are terminated by filtration through glass fiber filters (Schleicher and Schuell No. 32) using a cell harvester (Brandel) and rinsed three times with ice-cold buffer. Filter bound radioactivity is measured by liquid scintillation spectrometry. Non-linear curve fitting of the overall data for each drug averaged for each concentration is done using Prism (GraphPad).
Various compounds are or can be screened to determine their potential as modulators of [^35S]-TBPS binding in vitro. These assays are or can be performed in accordance with the above discussed procedures.

Row | Compound | IC50 [nM]
1 | CC[C@H](NC(=O)[C@H]1CC[C@H]2[C@@H]3CC[C@@H]4C[C@](C)(O)CC[C@@H]4[C@H]3CC[C@]12C)c1ccc(F)cc1 (single isomer, unassigned) [Compound 33] | 100 to 500
2 | CC[C@@H](NC(=O)[C@H]1CC[C@H]2[C@@H]3CC[C@@H]4C[C@](C)(O)CC[C@@H]4[C@H]3CC[C@]12C)c1ccc(F)cc1 (single isomer, unassigned) [Compound 34] | 100 to 500
3 | C[C@@]1(O)CC[C@H]2[C@@H](CC[C@@H]3[C@@H]2CC[C@@]2(C)[C@H]3CCC2(O)c2ccccc2)C1 (stereo in doubt) [Compound 100] | > 500
4 | C[C@@]1(O)CC[C@H]2[C@H](CC[C@@H]3[C@@H]2CC[C@]2(C)[C@@H](C(=O)NCc4ccccc4)CC[C@@H]32)C1 [Compound 1] | 50 to 100
5 | CCN(CC)C(=O)[C@H]1CC[C@H]2[C@@H]3CC[C@@H]4C[C@](C)(O)CC[C@@H]4[C@H]3CC[C@]12C [Compound 2] | 100 to 500
6 | C[C@@]1(O)CC[C@H]2[C@H](CC[C@@H]3[C@@H]2CC[C@]2(C)[C@@H](C(=O)Nc4ccccc4)CC[C@@H]32)C1 [Compound 3] | < 10
7 | CN(Cc1ccccc1)C(=O)[C@H]1CC[C@H]2[C@@H]3CC[C@@H]4C[C@](C)(O)CC[C@@H]4[C@H]3CC[C@]12C [Compound 4] | 10 to 50
8 | C[C@@]1(O)CC[C@H]2[C@H](CC[C@@H]3[C@@H]2CC[C@]2(C)[C@@H](C(=O)N4CCCCC4)CC[C@@H]32)C1 [Compound 5] | 50 to 100
9 | C[C@@]1(O)CC[C@H]2[C@H](CC[C@@H]3[C@@H]2CC[C@]2(C)[C@@H](C(=O)N4CCCOCC4)CC[C@@H]32)C1 [Compound 6] | > 500
10 | CN(C(=O)[C@H]1CC[C@H]2[C@@H]3CC[C@@H]4C[C@](C)(O)CC[C@@H]4[C@H]3CC[C@]12C)c1ccccc1 [Compound 7] | > 500
11 | C[C@@]1(O)CC[C@H]2[C@H](CC[C@@H]3[C@@H]2CC[C@]2(C)[C@@H](C(=O)NC4CCCCC4)CC[C@@H]32)C1 [Compound 8] | 50 to 100
12 | CN(C(=O)[C@H]1CC[C@H]2[C@@H]3CC[C@@H]4C[C@](C)(O)CC[C@@H]4[C@H]3CC[C@]12C)C1CCCCC1 [Compound 9] | 100 to 500
13 | CN(C(=O)[C@H]1CC[C@H]2[C@@H]3CC[C@@H]4C[C@](C)(O)CC[C@@H]4[C@H]3CC[C@]12C)C1CCOCC1 [Compound 10] | 100 to 500
14 | C[C@@]1(O)CC[C@H]2[C@H](CC[C@@H]3[C@@H]2CC[C@]2(C)[C@@H](C(=O)NCc4ccncc4)CC[C@@H]32)C1 [Compound 11] | > 500
15 | C[C@@]1(O)CC[C@H]2[C@H](CC[C@@H]3[C@@H]2CC[C@]2(C)[C@@H](C(=O)NCc4cccnc4)CC[C@@H]32)C1 [Compound 12] | > 500
16 | CN(Cc1ccncc1)C(=O)[C@H]1CC[C@H]2[C@@H]3CC[C@@H]4C[C@](C)(O)CC[C@@H]4[C@H]3CC[C@]12C [Compound 13] | 100 to 500
17 | CN(CC1CCOCC1)C(=O)[C@H]1CC[C@H]2[C@@H]3CC[C@@H]4C[C@](C)(O)CC[C@@H]4[C@H]3CC[C@]12C [Compound 14] | > 500
18 | C[C@@]1(O)CC[C@H]2[C@H](CC[C@@H]3[C@@H]2CC[C@]2(C)[C@@H](C(=O)NCc4ccccn4)CC[C@@H]32)C1 [Compound 15] | 100 to 500
19 | CN(Cc1cccnc1)C(=O)[C@H]1CC[C@H]2[C@@H]3CC[C@@H]4C[C@](C)(O)CC[C@@H]4[C@H]3CC[C@]12C [Compound 16] | 100 to 500
